Laboratory results from patent US20220308068A1, “BIOMARKER IN OSTEOPOROSIS INTERVENTION THERAPY BY BONE PEPTIDE, SCREENING METHOD AND USE THEREOF” (Institute of Food Science and Technology, Chinese Academy …, priority 2019, published 2022).

Tested on: ovariectomized osteoporosis rat model
Assay: three-point bending test of left femurs
Type: in vivo, SD rats
Conditions: left femur; treatment groups and ES group vs Model group
Method: 1, the construction of ovariectomized rats models: SD rats are kept in a clean environment under a controlled room temperature at 25±2° C. and alternates 12/12 light and dark every day, and the SD rats feed freely. After one week adaptive feeding, randomly select 8 female rats, anesthetize them with 1% (v/v) pentobarbital sodium (40 mg/kg BW), and remove a little fat near ovaries. The remaining 40 rats are ovariectomized after being anesthetized with pentobarbital sodium. The recovery situation is observed in a 4-week recovery period, and their weight changes are detected. These are prepared by the applicant in advance. (any research about metabolic fingerprint changes of ovariectomized osteoporotic rats after intervention with bone peptide have not been reported according to the existing literature). 2, animal grouping and samples collection: the 8 female rats with a little fat near ovaries removed are selected as a sham-operated group, the ovariectomized 40 rats are randomly divided into 5 groups with 8 rats in each group, and are named by a negative control group, a positive control group, a low-concentration treatment group, a medium-concentration treatment group and a high-concentration treatment group. […]

C[C@]12CC[C@@H]3c4ccc(O)cc4CC[C@H]3[C@@H]1CC[C@@H]2O [ES, 17β-estradiol]
elastic load (Ed): on a rise trend | fracture load (Fd): on a rise trend
